From ChEMBL document CHEMBL3112450, “Synthesis and in vitro antitumor evaluation of primary amine substituted quinazoline linked benzimidazole” (Bioorg Med Chem Lett, 2014)

Assays:
Assay type in all cases: functional
CAKI-1 = assay: Cytotoxicity against human Caki1 cells assessed as cell growth at 10^-4 M after 48 hrs by SRB assay; conditions: CAKI-1, 48 h, read-out: Activity
NCI-H522 [1] = assay: Cytotoxicity against human NCI-H522 cells assessed as cell growth at 10^-7 M after 48 hrs by SRB assay; conditions: NCI-H522, 48 h, read-out: Activity
SK-OV-3 [2] = assay: Cytotoxicity against human SKOV3 cells assessed as cell growth at 10^-6 M after 48 hrs by SRB assay; conditions: SK-OV-3, 48 h, read-out: Activity
HT-29 [3] = assay: Cytotoxicity against human HT-29 cells assessed as cell growth at 10^-5 M after 48 hrs by SRB assay; conditions: HT-29, 48 h, read-out: Activity
UACC-62 [4] = assay: Cytotoxicity against human UACC62 cells assessed as cell growth at 10^-5 M after 48 hrs by SRB assay; conditions: UACC-62, 48 h, read-out: Activity
SF-295 [5] = assay: Cytotoxicity against human SF295 cells assessed as cell growth at 10^-8 M after 48 hrs by SRB assay; conditions: SF-295, 48 h, read-out: Activity
LOX IMVI = assay: Cytotoxicity against human LOXIMVI cells assessed as cell growth at 10^-5 M after 48 hrs by SRB assay; conditions: read-out: Activity
K562 [6] = assay: Cytotoxicity against human K562 cells assessed as cell growth at 10^-8 M after 48 hrs by SRB assay; conditions: K562, 48 h, read-out: Activity
A498 = assay: Cytotoxicity against human A498 cells after 48 hrs by SRB assay; conditions: A498, 48 h
BT-549 = assay: Cytotoxicity against human BT549 cells after 48 hrs by SRB assay; conditions: BT-549, 48 h
SN12C = assay: Cytotoxicity against human SN12C cells assessed as cell growth at 10^-5 M after 48 hrs by SRB assay; conditions: read-out: Activity
NCI-H522 [7] = assay: Cytotoxicity against human NCI-H522 cells after 48 hrs by SRB assay; conditions: NCI-H522, 48 h
K562 [8] = assay: Cytotoxicity against human K562 cells assessed as cell growth at 10^-5 M after 48 hrs by SRB assay; conditions: K562, 48 h, read-out: Activity
T47D = assay: Cytotoxicity against human T47D cells assessed as cell growth at 10^-5 M after 48 hrs by SRB assay; conditions: read-out: Activity
SK-OV-3 [9] = assay: Cytotoxicity against human SKOV3 cells assessed as cell growth at 10^-7 M after 48 hrs by SRB assay; conditions: SK-OV-3, 48 h, read-out: Activity
[10] = Cytotoxicity against human OVCAR4 cells assessed as cell growth at 10^-5 M after 48 hrs by SRB assay; conditions: OVCAR-4, 48 h, read-out: Activity
NCI-H522 [11] = assay: Cytotoxicity against human NCI-H522 cells assessed as cell growth at 10^-5 M after 48 hrs by SRB assay; conditions: NCI-H522, 48 h, read-out: Activity
DU-145 = assay: Cytotoxicity against human DU145 cells assessed as cell growth at 10^-4 M after 48 hrs by SRB assay; conditions: DU-145, 48 h, read-out: Activity
SF-295 [12] = assay: Cytotoxicity against human SF295 cells assessed as cell growth at 10^-5 M after 48 hrs by SRB assay; conditions: SF-295, 48 h, read-out: Activity
[13] = Cytotoxicity against human UACC257 cells assessed as cell growth at 10^-5 M after 48 hrs by SRB assay; conditions: UACC-257, 48 h, read-out: Activity
MDA-MB-231 = assay: Cytotoxicity against human MDA-MB-231 cells assessed as cell growth at 10^-5 M after 48 hrs by SRB assay; conditions: MDA-MB-231, 48 h, read-out: Activity
[14] = Cytotoxicity against human OVCAR5 cells assessed as cell growth at 10^-5 M after 48 hrs by SRB assay; conditions: OVCAR-5, 48 h, read-out: Activity
HT-29 [15] = assay: Cytotoxicity against human HT-29 cells assessed as cell growth at 10^-4 M after 48 hrs by SRB assay; conditions: HT-29, 48 h, read-out: Activity
HOP-92 = assay: Cytotoxicity against human HOP92 cells assessed as cell growth at 10^-6 M after 48 hrs by SRB assay; conditions: HOP-92, 48 h, read-out: Activity
U-251 = assay: Cytotoxicity against human U251 cells assessed as cell growth at 10^-5 M after 48 hrs by SRB assay; conditions: U-251, 48 h, read-out: Activity
RXF 393 = assay: Cytotoxicity against human RXF393 cells assessed as cell growth at 10^-5 M after 48 hrs by SRB assay; conditions: RXF 393, 48 h, read-out: Activity
786-0 = assay: Cytotoxicity against human 786-0 cells assessed as cell growth at 10^-8 M after 48 hrs by SRB assay; conditions: 786-0, 48 h, read-out: Activity
NCI-H23 = assay: Cytotoxicity against human NCI-H23 cells assessed as cell growth at 10^-5 M after 48 hrs by SRB assay; conditions: NCI-H23, 48 h, read-out: Activity
UACC-62 [16] = assay: Cytotoxicity against human UACC62 cells assessed as cell growth at 10^-7 M after 48 hrs by SRB assay; conditions: UACC-62, 48 h, read-out: Activity
SK-MEL-2 [17] = assay: Cytotoxicity against human SK-MEL-2 cells assessed as cell growth at 10^-4 M after 48 hrs by SRB assay; conditions: SK-MEL-2, 48 h, read-out: Activity
MCF7 = assay: Cytotoxicity against human MCF7 cells after 48 hrs by SRB assay; conditions: MCF7, 48 h
SK-MEL-2 [18] = assay: Cytotoxicity against human SK-MEL-2 cells assessed as cell growth at 10^-5 M after 48 hrs by SRB assay; conditions: SK-MEL-2, 48 h, read-out: Activity
IGROV-1 [19] = assay: Cytotoxicity against human IGROV1 cells assessed as cell growth at 10^-8 M after 48 hrs by SRB assay; conditions: IGROV-1, 48 h, read-out: Activity
NCI-H460 = assay: Cytotoxicity against human NCI-H460 cells assessed as cell growth at 10^-5 M after 48 hrs by SRB assay; conditions: NCI-H460, 48 h, read-out: Activity
[20] = Cytotoxicity against human Hs578T cells assessed as cell growth at 10^-7 M after 48 hrs by SRB assay; conditions: Hs-578T, read-out: Activity
IGROV-1 [21] = assay: Cytotoxicity against human IGROV1 cells assessed as cell growth at 10^-5 M after 48 hrs by SRB assay; conditions: IGROV-1, 48 h, read-out: Activity
SK-OV-3 [22] = assay: Cytotoxicity against human SKOV3 cells assessed as cell growth at 10^-5 M after 48 hrs by SRB assay; conditions: SK-OV-3, 48 h, read-out: Activity
M14 = assay: Cytotoxicity against human M14 cells assessed as cell growth at 10^-5 M after 48 hrs by SRB assay; conditions: M14, 48 h, read-out: Activity
KM12 = assay: Cytotoxicity against human KM12 cells assessed as cell growth at 10^-5 M after 48 hrs by SRB assay; conditions: KM12, 48 h, read-out: Activity
OVCAR-3 = assay: Cytotoxicity against human OVCAR3 cells assessed as cell growth at 10^-5 M after 48 hrs by SRB assay; conditions: OVCAR-3, 48 h, read-out: Activity

## C=CCn1c(C)nc2ccc(Nc3nc(Nc4ccc5nc(C)n(CC=C)c5c4)c4ccccc4n3)cc21
CAKI-1
  growth at 100 µM: -28%
NCI-H522 [1]
  growth at 0.1 µM: 91%
SK-OV-3 [2]
  growth at 1 µM: 96%
HT-29 [3]
  growth at 10 µM: -96.7%
UACC-62 [4]
  growth at 10 µM: -100%
SF-295 [5]
  growth at 0.01 µM: 94%
LOX IMVI
  growth at 10 µM: -91%
K562 [6]
  growth at 0.01 µM: 96%
A498
  GI50: 0.442 µM
  TGI: 2.08 µM
BT-549
  GI50: 1.62 µM
  TGI: 3.16 µM
SN12C
  growth at 10 µM: -100%
NCI-H522 [7]
  GI50: 2.03 µM
  TGI: 3.53 µM
K562 [8]
  growth at 10 µM: -49%
T47D
  growth at 10 µM: -91%
SK-OV-3 [9]
  growth at 0.1 µM: 95%
[10]
  growth at 10 µM: -100%
NCI-H522 [11]
  growth at 10 µM: -94%
DU-145
  growth at 100 µM: -75%
SF-295 [12]
  growth at 10 µM: -80%
[13]
  growth at 10 µM: -91%
MDA-MB-231
  growth at 10 µM: -100%
[14]
  growth at 10 µM: -98%
HT-29 [15]
  growth at 100 µM: -16%
HOP-92
  growth at 1 µM: 70%
U-251
  growth at 10 µM: -100%
RXF 393
  growth at 10 µM: -93%
786-0
  growth at 0.01 µM: 98%
NCI-H23
  growth at 10 µM: -89%
UACC-62 [16]
  growth at 0.1 µM: 94%
SK-MEL-2 [17]
  growth at 100 µM: -25%
MCF7
  GI50: 1.54 µM
  TGI: 2.88 µM
SK-MEL-2 [18]
  growth at 10 µM: -88%
IGROV-1 [19]
  growth at 0.01 µM: 100%
NCI-H460
  growth at 10 µM: -74%
[20]
  growth at 0.1 µM: 96%
IGROV-1 [21]
  growth at 10 µM: -87%
SK-OV-3 [22]
  growth at 10 µM: -100%
M14
  growth at 10 µM: -95%
KM12
  growth at 10 µM: -94%
OVCAR-3
  growth at 10 µM: -99%
